Laboratory results taken from US20260272998A1, “CHEMICALLY-MODIFIED MICROORGANISM CONTAINING A SUPEROXIDE DISMUTASE MIMIC INORGANIC COMPLEX AND USE THEREOF FOR TREATING INFLAMMATORY DISEASES” (INSTITUT NATIONAL DE RECHERCHE POUR L'AGRICULTURE, …, priority 2023, published 2026).
“Also recorded” adds a separate entry of the source.

Columns and labels:
[1] = tested on: DBNS-induced colitis murine model; details: administered orally in a carbonate buffer; cited from earlier work
[2] = tested on: Lactobacillus plantarum MD007 strain
Procedure: The Lactobacillus plantarum MD007 strain is grown in MRS containing D-alanine (200 μg/mL) at 37° C.
An overnight culture is used to inoculate fresh medium in order to get an OD600 nm of 0.2, and cells are grown to an OD600 nm of 0.7 and are washed three times D-alanine free MRS medium. The washed bacteria are incubated in medium without D-alanine for 3 h at 37° C. before SOD mimic loading. After alanine starvation, the bacteria are washed three times with Hepes (0.1 M, pH 7.4) to reach a concentration about 10^9 bacteria per 200 μL.
After removal of the culture medium supernatant, bacteria are incubated with Hepes (0.1 M, pH 7.4) only, or with the tested compounds (Mn1 or Mn1C) at the desired concentration in the same buffer for two or twenty-four hours, at 37° C. Mn1C, Mn1 solutions are prepared extemporaneously to prevent degradation and manganese oxidation reactions. After cultures centrifugation and washing with Hepes (0.1 M, pH 7.4), the bacteria are resuspended in Hepes 0.1 M containing 16% glycerol to reach a concentration about 10^9 bacteria per 200 μL. […]
To assess bacteria viability, the overnight culture and the frozen vials are controlled by CFU (colony forming unit) test by diluting the preparation in PBS by serial 1/10 dilution and plating a known volume of the dilutions on the corresponding medium. […] Colonies are then counted by visual observation.

[3] = tested on: intestinal epithelial cells and macrophages; details: cited from earlier work
[4] = McCord and Fridovich assay; cited from earlier work

In the case of `Cn1ccnc1CNCCN(Cc1ccccc1O)Cc1nccn1C.[Mn+2]` [Mn1], the “anti-inflammatory activity in DNBS-induced colitis (weight variation, macroscopic scores)” value [1] is given as “exert an intracellular anti-inflammatory activity in vivo; also recorded: ameliorates DNBS-induced colitis”, the “cell viability of loaded bacteria (CFU)” value [2] is given as “does not affect cell viability” and the “antioxidant and anti-inflammatory effects on cells” value [3] is given as “antioxidant and anti-inflammatory effects”. For the same compound, the “kcat for superoxide dismutation” value [4] was 7.10^6 M^−1·s^−1.
